Experimental data published in PubChem BioAssay (NCI).
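Where inhibition never reached the appropriate level, the endpoint shown equals the highest concentration tested. Otherwise, values were interpolated linearly from a five-concentration, 48-hour dose response in 96-well plates. GI50 is the concentration that inhibits growth by half. TGI denotes the concentration required for complete inhibition of growth.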

Key:
P388 leukemia = experiment: NCI tumour cell line growth inhibition, 48 h
RXF-631 renal = experiment: NCI tumour cell line growth inhibition, 48 h

Work on `Cc1c2cc[n+](Cc3ccc(I)cc3)cc2c(C)c2c1[nH]c1ccccc12` yielded a TGI (P388 leukemia) of 558 nM.
`Cc1nc2ccc(NCCN(C)C)c3c(=O)c4ccccc4n1c23` showed a TGI (RXF-631 renal) of 15.8 µM.
Work on `C/C(=C\C(=O)Nc1ccc2n[nH]nc2c1)Nc1ccc2n[nH]nc2c1` yielded a TGI (RXF-631 renal) greater than 100 µM.
`[CH3][Sn]([CH3])([CH3])[S]C(=S)N1CCOCC1` was tested, and the GI50 (P388 leukemia) was 82 nM and the TGI (P388 leukemia) was 389 nM.
Work on `Brc1ccc2[nH]c3c(C4=NCCC4)nccc3c2c1` yielded a TGI (P388 leukemia) greater than 21700 nM.
